# Experimental data as given in ChEMBL document CHEMBL4699508, “Bioactivity-Guided Discovery of Human Carboxylesterase Inhibitors from the Roots of Paeonia lactiflora” (J Nat Prod, 2020).
# pIC50: −log10 of the molar value.
# Key:
# [1] = molecular target: T1, Liver carboxylesterase 1 (Homo sapiens, UniProt P23141); assay: Inhibition of CES1A1 in human liver microsomes using D-luciferin methyl ester as substrate preincubated for 10 mins followed by substrate addition and measured after 10 mins by fluorescence assay
# T1 sequence (P23141 whole entry): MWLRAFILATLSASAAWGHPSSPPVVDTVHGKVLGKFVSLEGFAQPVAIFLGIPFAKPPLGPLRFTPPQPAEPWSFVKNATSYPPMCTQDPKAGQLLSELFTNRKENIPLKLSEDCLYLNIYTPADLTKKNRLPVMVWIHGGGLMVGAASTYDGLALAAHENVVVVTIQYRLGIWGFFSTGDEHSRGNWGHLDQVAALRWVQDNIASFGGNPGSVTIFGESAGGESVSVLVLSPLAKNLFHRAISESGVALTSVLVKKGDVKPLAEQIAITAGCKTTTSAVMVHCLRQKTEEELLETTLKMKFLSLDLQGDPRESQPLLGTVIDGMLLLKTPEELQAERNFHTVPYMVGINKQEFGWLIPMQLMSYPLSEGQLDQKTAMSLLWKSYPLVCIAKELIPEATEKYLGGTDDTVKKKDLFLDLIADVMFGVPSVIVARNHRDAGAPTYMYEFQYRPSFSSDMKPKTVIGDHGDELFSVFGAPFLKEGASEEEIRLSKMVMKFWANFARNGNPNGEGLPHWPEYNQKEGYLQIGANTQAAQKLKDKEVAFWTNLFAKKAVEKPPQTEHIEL
# [2] = species on record: Homo sapiens; assay: Selectivity ratio of IC50 for inhibition of CES2A1 in human liver microsomes to IC50 for CES1A1 in human liver microsomes; settings: Microsome
pIC50 [1],Ratio IC50 [2],Compound
7.00,30,CC1(C)CC[C@]2(C(=O)O)CC[C@]3(C)C(=CC[C@@H]4[C@@]5(C)CC[C@@H]6OC(C)(C)OC[C@@]6(C)[C@@H]5CC[C@]43C)[C@@H]2C1
7.00,30,C=C1CC[C@]2(C(=O)O)CC[C@]3(C)C(=CC[C@@H]4[C@@]5(C)CC[C@H](O)[C@@](C)(CO)[C@@H]5CC[C@]43C)[C@@H]2C1
7.00,30,C=C(C)[C@@H]1CC[C@]2(C(=O)O)CC[C@]3(C)[C@H](CC[C@@H]4[C@@]5(C)CC[C@@H]6OC(C)(C)OC[C@@]6(C)[C@@H]5CC[C@]43C)[C@@H]12
7.00,30,C=C1CC[C@]2(C(=O)O)CC[C@]3(C)C(=CC[C@@H]4[C@@]5(C)CC[C@@H]6OC(C)(C)OC[C@@]6(C)[C@@H]5CC[C@]43C)[C@@H]2C1
7.00,,CC1(C)CC[C@]2(C)CC[C@]3(C)C(=CC[C@@H]4[C@@]5(C)CCC(=O)C(C)(C)[C@@H]5CC[C@]43C)[C@@H]2C1
7.00,30,C[C@H]1[C@H](C)CC[C@]2(C(=O)O)CC[C@]3(C)C(=CC[C@@H]4[C@@]5(C)CC[C@H](O)C(C)(C)[C@@H]5CC[C@]43C)[C@H]12 [URSOLIC ACID]

Compound,pIC50 [1],Ratio IC50 [2]
C=C(C)[C@@H]1CC[C@]2(C)CC[C@]3(C)[C@H](CC[C@@H]4[C@@]5(C)CC[C@H](O)C(C)(C)[C@@H]5CC[C@]43C)[C@@H]12 [LUPEOL],7.00,30
C=C(C)[C@@H]1CC[C@]2(C(=O)O)CC[C@]3(C)[C@H](CC[C@@H]4[C@@]5(C)CC[C@H](O)[C@@](C)(CO)[C@@H]5CC[C@]43C)[C@@H]12,7.00,30
CC1(C)CC[C@]2(C(=O)O)CC[C@]3(C)C(=CC[C@@H]4[C@@]5(C)CC[C@H](O)C(C)(C)[C@@H]5CC[C@]43C)[C@@H]2C1 [OLEANOLIC_ACID],7.00,30
